PMC12107143, “MALT1 inhibitor MI-2 induces ferroptosis by direct targeting of GPX4” (Proceedings of the National Academy of Sciences of the …, 2025)

Target: T1, MALT1 (Homo sapiens, UniProt Q9UDY8)
T1 construct: GST-MALT1 (aa 325–760)
T1 sequence (Q9UDY8 325-760): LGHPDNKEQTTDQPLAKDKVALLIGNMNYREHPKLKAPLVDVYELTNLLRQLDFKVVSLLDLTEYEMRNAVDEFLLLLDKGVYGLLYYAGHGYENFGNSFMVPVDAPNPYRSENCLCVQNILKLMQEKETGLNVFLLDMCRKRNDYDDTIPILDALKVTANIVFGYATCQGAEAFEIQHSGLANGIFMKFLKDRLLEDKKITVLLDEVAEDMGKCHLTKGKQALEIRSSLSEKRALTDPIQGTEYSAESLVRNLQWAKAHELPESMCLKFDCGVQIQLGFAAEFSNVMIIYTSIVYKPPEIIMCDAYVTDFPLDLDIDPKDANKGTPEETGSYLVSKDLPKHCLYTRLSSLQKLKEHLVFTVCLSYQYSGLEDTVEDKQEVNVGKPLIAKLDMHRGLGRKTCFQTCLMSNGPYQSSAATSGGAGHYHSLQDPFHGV
Test: recombinant GST-MALT1 protease assay with fluorescence substrate Ac-LRSR-AMC
Format: biochemical

IC50: 2100 nM
Compound: COCCOc1nc(-c2ccc(Cl)c(Cl)c2)n(-c2ccc(NC(=O)CCl)cc2)n1 [MI-2]
